This is an account of results in patent US7632811B2, “Analogs of parathyroid hormone” (Societe de Conseils de Recherches et D'Applications …, priority 1995, dated 2009).

Non-standard residues stand in square brackets, D forms with d. Residues, ends and D or L forms follow the SMILES beside them. Cha = N[C@@H](CC1CCCCC1)C(=O)O

In this experiment the target is T1, PTH receptor present on SaOS-2 (human osteosarcoma cells) (Homo sapiens, UniProt Q03431).
T1 construct: host or cells: SaOS-2 human osteosarcoma cells (intact, confluent monolayers)
T1 sequence (Q03431 27-593): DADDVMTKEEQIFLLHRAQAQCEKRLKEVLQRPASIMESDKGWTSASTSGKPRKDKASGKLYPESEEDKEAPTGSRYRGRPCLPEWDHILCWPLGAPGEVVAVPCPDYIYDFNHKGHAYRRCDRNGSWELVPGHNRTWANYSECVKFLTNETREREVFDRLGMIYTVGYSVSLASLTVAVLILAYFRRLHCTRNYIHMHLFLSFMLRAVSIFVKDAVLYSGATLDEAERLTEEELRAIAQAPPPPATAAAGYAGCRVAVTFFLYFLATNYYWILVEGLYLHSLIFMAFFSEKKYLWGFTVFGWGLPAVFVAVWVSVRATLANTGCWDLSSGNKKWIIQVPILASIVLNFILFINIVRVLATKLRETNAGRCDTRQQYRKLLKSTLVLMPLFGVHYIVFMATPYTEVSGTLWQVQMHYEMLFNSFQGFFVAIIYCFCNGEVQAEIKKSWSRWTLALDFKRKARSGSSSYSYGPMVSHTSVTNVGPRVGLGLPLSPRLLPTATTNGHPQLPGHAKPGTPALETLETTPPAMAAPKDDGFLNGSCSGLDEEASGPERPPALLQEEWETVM
Description: Binding to PTH receptor on SaOS-2 cells (competition with mono-125I-[Nle8,18,Tyr34(3-125I)]bPTH(1-34)NH2). As to conditions: Table I, 2 hrs at room temperature, read-out: Kd (half maximal inhibition of binding of mono-125I-[Nle8,18, Tyr34(3-125I)]bPTH(1-34)NH2). The method in brief:
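Confluent SaOS-2 cells in 5% FBS RPMI were incubated 2 h at room temperature with 10×10^4 cpm mono-125I-[Nle8,18,Tyr34(3-125I)]bPTH(1-34)NH2 plus competing peptide at 10^−11 to 10^−4 M. After washing, cell-bound radioactivity was counted; Kd taken as half-maximal inhibition of tracer binding.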

As for `CC[C@H](C)[C@H](NC(=O)[C@H](CCC(=O)O)NC(=O)[C@H](CO)NC(=O)[C@@H](NC(=O)[C@@H](N)CO)C(C)C)C(=O)N[C@@H](CCC(N)=O)C(=O)N[C@@H](CC(C)C)C(=O)N[C@@H](CCSC)C(=O)N[C@@H](Cc1c[nH]cn1)C(=O)N[C@@H](CC(N)=O)C(=O)N[C@@H](CC(C)C)C(=O)NCC(=O)N[C@@H](CCCCN)C(=O)N[C@@H](Cc1c[nH]cn1)C(=O)N[C@@H](CC(C)C)C(=O)N[C@@H](CC(N)=O)C(=O)N[C@@H](CO)C(=O)N[C@@H](CCSC)C(=O)N[C@@H](CCC(=O)O)C(=O)N[C@@H](CCCNC(=N)N)C(=O)N[C@H](C(=O)N[C@@H](CCC(=O)O)C(=O)N[C@@H](CC1CCCCC1)C(=O)N[C@@H](CC(C)C)C(=O)N[C@@H](CCCNC(=N)N)C(=O)N[C@@H](CCCCN)C(=O)N[C@@H](CCCCN)C(=O)N[C@@H](CC(C)C)C(=O)N[C@@H](CCC(N)=O)C(=O)N[C@@H](CC(=O)O)C(=O)N[C@H](C(=O)N[C@@H](Cc1c[nH]cn1)C(=O)N[C@@H](CC(N)=O)C(=O)N[C@@H](Cc1ccccc1)C(N)=O)C(C)C)C(C)C` [[Cha^23]hPTH(1-34)NH2] (H-SVSEIQLMHNLGKHLNSMERVE[Cha]LRKKLQDVHNF-NH2), the Kd – broadly, the equilibrium constant for the complex coming apart – is 0.2 µM.
For `CC[C@H](C)[C@H](NC(=O)[C@H](CCC(=O)O)NC(=O)[C@H](CO)NC(=O)[C@@H](NC(=O)[C@@H](N)CO)C(C)C)C(=O)N[C@@H](CCC(N)=O)C(=O)N[C@@H](CC(C)C)C(=O)N[C@@H](CCSC)C(=O)N[C@@H](Cc1c[nH]cn1)C(=O)N[C@@H](CC(N)=O)C(=O)N[C@@H](CC(C)C)C(=O)NCC(=O)N[C@@H](CCCCN)C(=O)N[C@@H](Cc1c[nH]cn1)C(=O)N[C@@H](CC(C)C)C(=O)N[C@@H](CC(N)=O)C(=O)N[C@@H](CO)C(=O)N[C@@H](CCSC)C(=O)N[C@@H](CCC(=O)O)C(=O)N[C@@H](CCCNC(=N)N)C(=O)N[C@H](C(=O)N[C@@H](CCC(=O)O)C(=O)N[C@@H](Cc1c[nH]c2ccccc12)C(=O)N[C@@H](CC1CCCCC1)C(=O)N[C@@H](CCCNC(=N)N)C(=O)N[C@@H](CCCCN)C(=O)N[C@@H](CCCCN)C(=O)N[C@@H](CC1CCCCC1)C(=O)N[C@@H](CCC(N)=O)C(=O)N[C@@H](CCCCN)C(=O)N[C@@H](CC1CCCCC1)C(=O)N[C@@H](Cc1c[nH]cn1)C(=O)N[C@@H](CC(N)=O)C(=O)N[C@@H](Cc1ccccc1)C(N)=O)C(C)C` [[Cha^24,28,31, Lys^30]hPTH(1-34)NH2] (H-SVSEIQLMHNLGKHLNSMERVEW[Cha]RKK[Cha]QK[Cha]HNF-NH2), the Kd turned out to be 0.5 µM.
The figure for `CC[C@H](C)[C@H](NC(=O)[C@H](CCC(=O)O)NC(=O)[C@H](CO)NC(=O)[C@@H](NC(=O)[C@@H](N)CO)C(C)C)C(=O)N[C@@H](CCC(N)=O)C(=O)N[C@@H](CC(C)C)C(=O)N[C@@H](CCSC)C(=O)N[C@@H](Cc1c[nH]cn1)C(=O)N[C@@H](CC(N)=O)C(=O)N[C@@H](CC(C)C)C(=O)NCC(=O)N[C@@H](CCCCN)C(=O)N[C@@H](Cc1c[nH]cn1)C(=O)N[C@@H](CC(C)C)C(=O)N[C@@H](CC(N)=O)C(=O)N[C@@H](CO)C(=O)N[C@@H](CCSC)C(=O)N[C@@H](CCC(=O)O)C(=O)N[C@@H](CCCNC(=N)N)C(=O)N[C@H](C(=O)N[C@@H](CCC(=O)O)C(=O)N[C@@H](Cc1c[nH]c2ccccc12)C(=O)N[C@@H](CC1CCCCC1)C(=O)N[C@@H](CCCNC(=N)N)C(=O)N[C@@H](CCCCN)C(=O)N[C@@H](CCCCN)C(=O)N[C@@H](CC1CCCCC1)C(=O)N[C@@H](CCC(N)=O)C(=O)N[C@@H](CC(=O)O)C(=O)N[C@@H](CC1CCCCC1)C(=O)N[C@@H](Cc1c[nH]cn1)C(=O)N[C@@H](CC(N)=O)C(=O)N[C@@H](Cc1ccccc1)C(N)=O)C(C)C` [[Cha^24,28,31]hPTH(1-34)NH2] (H-SVSEIQLMHNLGKHLNSMERVEW[Cha]RKK[Cha]QD[Cha]HNF-NH2) is 1 µM; for `CC[C@H](C)[C@H](NC(=O)[C@H](CCC(=O)O)NC(=O)[C@H](CO)NC(=O)[C@@H](NC(=O)[C@@H](N)CO)C(C)C)C(=O)N[C@@H](CCC(N)=O)C(=O)N[C@@H](CC(C)C)C(=O)N[C@@H](CCSC)C(=O)N[C@@H](Cc1c[nH]cn1)C(=O)N[C@@H](CC(N)=O)C(=O)N[C@@H](CC(C)C)C(=O)NCC(=O)N[C@@H](CCCCN)C(=O)N[C@@H](Cc1c[nH]cn1)C(=O)N[C@@H](CC(C)C)C(=O)N[C@@H](CC(N)=O)C(=O)N[C@@H](CO)C(=O)N[C@@H](CCSC)C(=O)N[C@@H](CCC(=O)O)C(=O)N[C@@H](CCCNC(=N)N)C(=O)N[C@H](C(=O)N[C@@H](CCC(=O)O)C(=O)N[C@@H](Cc1c[nH]c2ccccc12)C(=O)N[C@@H](CC1CCCCC1)C(=O)N[C@@H](CCCNC(=N)N)C(=O)N[C@@H](CCCCN)C(=O)N[C@@H](CCCCN)C(=O)N[C@@H](CC(C)C)C(=O)N[C@@H](CCC(N)=O)C(=O)N[C@@H](CC(=O)O)C(=O)N[C@H](C(=O)N[C@@H](Cc1c[nH]cn1)C(=O)N[C@@H](CC(N)=O)C(=O)N[C@@H](Cc1ccccc1)C(N)=O)C(C)C)C(C)C` [[Cha^24]hPTH(1-34)NH2] (H-SVSEIQLMHNLGKHLNSMERVEW[Cha]RKKLQDVHNF-NH2) it is 0.1 µM.
As for `CC[C@H](C)[C@H](NC(=O)[C@H](CCC(=O)O)NC(=O)[C@H](CO)NC(=O)[C@@H](NC(=O)[C@@H](N)CO)C(C)C)C(=O)N[C@@H](CCC(N)=O)C(=O)N[C@@H](CC(C)C)C(=O)N[C@@H](CCSC)C(=O)N[C@@H](Cc1c[nH]cn1)C(=O)N[C@@H](CC(N)=O)C(=O)N[C@@H](CC(C)C)C(=O)NCC(=O)N[C@@H](CCCCN)C(=O)N[C@@H](Cc1c[nH]cn1)C(=O)N[C@@H](CC(C)C)C(=O)N[C@@H](CC(N)=O)C(=O)N[C@@H](CO)C(=O)N[C@@H](CCSC)C(=O)N[C@@H](CCC(=O)O)C(=O)N[C@@H](CCCNC(=N)N)C(=O)N[C@H](C(=O)N[C@@H](CCC(=O)O)C(=O)N[C@@H](Cc1c[nH]c2ccccc12)C(=O)N[C@@H](CC(C)C)C(=O)N[C@@H](CCCNC(=N)N)C(=O)N[C@@H](CCCCN)C(=O)N[C@@H](CCCCN)C(=O)N[C@@H](CC1CCCCC1)C(=O)N[C@@H](CCC(N)=O)C(=O)N[C@@H](CC(=O)O)C(=O)N[C@@H](CC1CCCCC1)C(=O)N[C@@H](Cc1c[nH]cn1)C(=O)N[C@@H](CC(N)=O)C(=O)N[C@@H](Cc1ccccc1)C(N)=O)C(C)C` [[Cha^28,31]hPTH(1-34)NH2] (H-SVSEIQLMHNLGKHLNSMERVEWLRKK[Cha]QD[Cha]HNF-NH2), the figure is 0.06 µM.
As for `CC[C@H](C)[C@H](NC(=O)[C@H](CCC(=O)O)NC(=O)[C@H](CO)NC(=O)[C@@H](NC(=O)[C@@H](N)CO)C(C)C)C(=O)N[C@@H](CCC(N)=O)C(=O)N[C@@H](CC(C)C)C(=O)N[C@@H](CCSC)C(=O)N[C@@H](Cc1c[nH]cn1)C(=O)N[C@@H](CC(N)=O)C(=O)N[C@@H](CC(C)C)C(=O)NCC(=O)N[C@@H](CCCCN)C(=O)N[C@@H](Cc1c[nH]cn1)C(=O)N[C@@H](CC(C)C)C(=O)N[C@@H](CC(N)=O)C(=O)N[C@@H](CO)C(=O)N[C@@H](CCSC)C(=O)N[C@@H](CCC(=O)O)C(=O)N[C@@H](CCCNC(=N)N)C(=O)N[C@H](C(=O)N[C@@H](CCC(=O)O)C(=O)N[C@@H](Cc1c[nH]c2ccccc12)C(=O)N[C@@H](CC(C)C)C(=O)N[C@@H](CCCNC(=N)N)C(=O)N[C@@H](CCCCN)C(=O)N[C@@H](CCCCN)C(=O)N[C@@H](CC1CCCCC1)C(=O)N[C@@H](CCC(N)=O)C(=O)N[C@@H](CC(=O)O)C(=O)N[C@H](C(=O)N[C@@H](Cc1c[nH]cn1)C(=O)N[C@@H](CC(N)=O)C(=O)N[C@@H](Cc1ccccc1)C(N)=O)C(C)C)C(C)C` [[Cha^28]hPTH(1-34)NH2] (H-SVSEIQLMHNLGKHLNSMERVEWLRKK[Cha]QDVHNF-NH2), the figure is 0.05 µM.
